The source of these data is ChEMBL document CHEMBL4270532, “Molecular dynamics simulations of viral neuraminidase inhibitors with the human neuraminidase enzymes: Insights into isoenzyme selectivity” (Bioorg Med Chem, 2018).

For assay [1], the target named is T1, Sialidase-4 (Homo sapiens, UniProt Q8WWR8).
T1 sequence (Q8WWR8 whole entry): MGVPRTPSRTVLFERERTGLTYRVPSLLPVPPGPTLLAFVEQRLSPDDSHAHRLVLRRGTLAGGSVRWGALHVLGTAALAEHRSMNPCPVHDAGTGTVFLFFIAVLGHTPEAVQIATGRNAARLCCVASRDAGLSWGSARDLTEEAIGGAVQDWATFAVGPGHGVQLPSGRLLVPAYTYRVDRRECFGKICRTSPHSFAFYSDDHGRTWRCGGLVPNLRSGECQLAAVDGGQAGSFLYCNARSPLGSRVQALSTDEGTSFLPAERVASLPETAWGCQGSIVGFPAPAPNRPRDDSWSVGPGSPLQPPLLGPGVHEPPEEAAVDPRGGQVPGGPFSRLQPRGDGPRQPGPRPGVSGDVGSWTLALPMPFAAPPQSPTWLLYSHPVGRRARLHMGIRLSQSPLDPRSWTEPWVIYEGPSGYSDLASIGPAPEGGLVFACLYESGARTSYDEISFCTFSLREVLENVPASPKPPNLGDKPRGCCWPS
As to the kind of experiment: Inhibition of MBP-fused recombinant human neuraminidase 4 expressed in Escherichia coli using 4MU-NANA as substrate preincubated for 15 mins followed by substrate addition measured after 30 mins by fluorescence analysis.

The target of assay [2] is T2, Sialidase-1 (Homo sapiens, UniProt Q99519). The assay can be described thus: Inhibition of recombinant His6-tagged human neuraminidase 1 expressed in HEK293 cells using 4MU-NANA as substrate preincubated for 15 mins followed by substrate addition measured every 1 min for 30 mins by fluorescence analysis.
For assay [3], the target named is T1, Sialidase-4. The assay can be described thus: Inhibition of MBP-fused recombinant human neuraminidase 4 expressed in Escherichia coli using 4MU-NANA as substrate preincubated for 15 mins followed by substrate addition measured every 1 min for 30 mins by fluorescence analysis.
Assay [4] concerns the target T2, Sialidase-1. The assay can be described thus: Inhibition of recombinant His6-tagged human neuraminidase 1 expressed in HEK293 cells using 4MU-NANA as substrate preincubated for 15 mins followed by substrate addition measured after 30 mins by fluorescence analysis.
The target in assay [5] is T3, Sialidase-3 (Homo sapiens, UniProt Q9UQ49).
T3 sequence (Q9UQ49 whole entry): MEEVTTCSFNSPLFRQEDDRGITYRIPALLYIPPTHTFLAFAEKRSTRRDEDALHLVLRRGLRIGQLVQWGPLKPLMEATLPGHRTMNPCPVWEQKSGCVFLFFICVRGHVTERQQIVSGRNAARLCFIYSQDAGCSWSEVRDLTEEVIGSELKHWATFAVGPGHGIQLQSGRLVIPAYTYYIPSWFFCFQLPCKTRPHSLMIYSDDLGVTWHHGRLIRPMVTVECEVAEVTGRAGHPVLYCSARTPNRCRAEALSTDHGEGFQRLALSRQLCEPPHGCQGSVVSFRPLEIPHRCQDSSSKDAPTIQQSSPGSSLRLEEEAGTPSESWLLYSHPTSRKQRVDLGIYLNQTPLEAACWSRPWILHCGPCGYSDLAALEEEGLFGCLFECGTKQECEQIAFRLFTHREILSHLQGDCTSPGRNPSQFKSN
The assay can be described thus: Inhibition of MBP-fused recombinant human neuraminidase 3 expressed in Escherichia coli using 4MU-NANA as substrate preincubated for 15 mins followed by substrate addition measured after 30 mins by fluorescence analysis.

The target of assay [6] is T3, Sialidase-3. As to the kind of experiment: Inhibition of MBP-fused recombinant human neuraminidase 3 expressed in Escherichia coli using 4MU-NANA as substrate preincubated for 15 mins followed by substrate addition measured every 1 min for 30 mins by fluorescence analysis.

Usually IC50 stands for the concentration at which inhibition is half-maximal. For the molecule `CC(=O)N[C@H]1[C@H]([C@H](O)[C@H](O)CO)OC(O)(C(=O)O)C[C@@H]1O` (some centres undefined), the IC50 in assay [1], in assay [4] and in assay [5] was more than 500 µM in each case. Moreover, the Ki result in assay [2], in assay [3] and in assay [6] was “Not Active” in each case.

On to `CCOC(=O)C1=C[C@@H](OC(CC)CC)[C@H](NC(C)=O)[C@@H](N)C1` [OSELTAMIVIR], for which the IC50 in assay [1], in assay [4] and in assay [5] was more than 500 µM in each case. The Ki entry in assay [2], in assay [3] and in assay [6] was “Not Active” throughout.

In the case of `CCC(CC)[C@H](NC(C)=O)[C@@H]1[C@H](O)[C@@H](C(=O)O)C[C@H]1NC(=N)N` [PERAMIVIR ANHYDROUS], the IC50 in assay [1], in assay [4] and in assay [5] was more than 500 µM throughout. Also, the Ki entry in assay [2], in assay [3] and in assay [6] was “Not Active” in each case.

Turning to `CC(=O)N[C@H]1[C@H]([C@H](O)[C@H](O)CO)OC(C(=O)O)=C[C@@H]1NC(=N)N` [ZANAMIVIR], the Ki result in assay [2] is reported as “Not Active”.
